We go through 49 compounds from patent US12428415B2, “Matriptase 2 inhibitors and uses thereof” (Disc Medicine, Inc., priority 2018, dated 2025).

The assay addresses T1, Human Recombinant Matriptase 2 (Homo sapiens, UniProt Q8IU80).
T1 construct: purchased Enzo Life Sciences (an in-house preparation was also used) ALX-201-752-1
T1 sequence (Q8IU80 1-811): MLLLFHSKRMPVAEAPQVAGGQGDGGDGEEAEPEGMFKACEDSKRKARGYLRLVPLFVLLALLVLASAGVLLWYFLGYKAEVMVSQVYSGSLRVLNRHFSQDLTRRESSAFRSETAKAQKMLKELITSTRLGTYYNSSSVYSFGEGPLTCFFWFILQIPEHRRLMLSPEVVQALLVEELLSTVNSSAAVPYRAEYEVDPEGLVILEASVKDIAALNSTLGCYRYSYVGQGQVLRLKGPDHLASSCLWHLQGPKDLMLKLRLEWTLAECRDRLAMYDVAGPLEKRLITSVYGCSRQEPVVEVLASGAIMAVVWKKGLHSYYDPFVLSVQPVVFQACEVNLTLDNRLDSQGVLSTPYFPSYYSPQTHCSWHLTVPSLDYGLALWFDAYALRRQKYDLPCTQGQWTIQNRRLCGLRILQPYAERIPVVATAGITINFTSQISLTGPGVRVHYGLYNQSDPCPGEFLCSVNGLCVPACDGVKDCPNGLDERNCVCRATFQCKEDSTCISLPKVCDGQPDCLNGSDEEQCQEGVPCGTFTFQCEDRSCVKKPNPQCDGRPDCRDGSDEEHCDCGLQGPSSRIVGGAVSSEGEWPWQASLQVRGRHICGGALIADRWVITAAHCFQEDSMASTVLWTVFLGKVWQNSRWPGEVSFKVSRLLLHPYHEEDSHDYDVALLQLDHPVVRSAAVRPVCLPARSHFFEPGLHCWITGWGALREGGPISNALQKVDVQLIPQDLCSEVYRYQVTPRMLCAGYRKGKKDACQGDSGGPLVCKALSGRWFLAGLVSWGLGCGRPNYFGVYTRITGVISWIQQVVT
Nature of the assay: Matriptase 2 fluorescence based inhibition assay, Method B (50 mM TRIS pH 7.5, 150 mM NaCl, 0.01% gelatin). It counts as biochemical. The following applies: read-out: Mar-2 % inhibition at 1 uM. The method in brief:
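Commercial (7 nM) or in-house (15 nM) enzyme preincubated 30 min with compound at 25° C, then 100 μM Boc-Gln-Ala-Arg-AMC added; fluorescence (Ex 360/Em 480 nm) read at 60 min. 1% DMSO final. IC50 from variable-slope sigmoidal fit of % inhibition.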

Where [1] appears, read: 1 uM compound, Assay Used = B (Method B).

Read-outs that look alike come from different tables or passages of the source.

Consider `COC(=O)c1cc2ccc(C(=N)NC(=O)Oc3ccccc3)cc2n1Cc1cccc2ccccc12` [Compound I-738], for which the inhibition at 1 µM fell in the range of 0 to 25%.
With `CC(C)(C)Sc1cccc2c(Cn3c(C(=O)N[C@H]4CC[C@H](N)CC4)cc4ccc(C(=N)N)cc43)cccc12` [Compound I-739], the inhibition at 1 µM under setting [1] was 75 to 100%.
`N=C(N)c1ccc2cc(C(=O)N[C@H]3CC[C@H](N)CC3)n(Cc3cccc4cc(OCc5ccccc5)ccc34)c2c1` [Compound I-740]: under setting [1], the inhibition at 1 µM was 75 to 100%.
On the same count and under the same terms, the same measure for `N=C(N)c1ccc2cc(C(=O)N[C@H]3CC[C@H](Nc4ncccn4)CC3)n(Cc3cccc4ccccc34)c2c1` [Compound I-741]: 50 to 75%; for `CC(C)(C)S(=O)(=O)c1cccc2c(Cn3c(C(=O)N[C@H]4CC[C@H](N)CC4)cc4ccc(C(=N)N)cc43)cccc12` [Compound I-742]: 50 to 75%; for `NCc1ccc2cc(C(=O)N[C@H]3CC[C@@H](N)CC3)n(Cc3cccc4ccccc34)c2c1` [Compound I-743]: 50 to 75%.
For `N=C(N)c1ccc2cc(C(=O)O[C@H]3CC[C@@H](N)CC3)n(Cc3cccc4ccccc34)c2c1` [Compound I-744], the inhibition at 1 µM under setting [1] was 75 to 100%.
On the same count and under the same terms, the same measure for `N=C(N)c1ccc2cc(C(=O)OCCN)n(Cc3cccc4ccccc34)c2c1` [Compound I-745]: 0 to 25%; for `N=C(N)c1ccc2cc(C(=O)O)n(Cc3cc(Oc4ccccc4)cc4ccccc34)c2c1` [Compound I-746]: 50 to 75%.
Still for that read-out and setting: the same measure for `CNC(=N)c1ccc2[nH]c(C(=O)N[C@H]3CC[C@H](N)CC3)c(Cc3cccc4ccccc34)c2c1` [Compound I-747]: 0 to 25%.
On the same count and under the same terms, with `N=C(N)c1ccc2cc(-c3ncco3)n(Cc3cccc4ccccc34)c2c1` [Compound I-748, 1-(naphthalen-1-ylmethyl)-2-(oxazol-2-yl)-1H-indole-6-carboximidamide] the figure was 75 to 100%; with `CS(=O)(=O)Nc1cc2ccc(C(=N)N)cc2n1Cc1cccc2ccccc12` [Compound I-749, 2-(methylsulfonamido)-1-(naphthalen-1-ylmethyl)-1H-indole-6-carboximidamide], 50 to 75%.
For the compound `N=C(N)c1ccc2cc(-c3nccs3)n(Cc3cccc4ccccc34)c2c1` [Compound I-750, 1-(naphthalen-1-ylmethyl)-2-(thiazol-2-yl)-1H-indole-6-carboximidamide], the inhibition at 1 µM under setting [1] lay within 50 to 75%.
Same read-out and setting: the same measure for `Cc1nnc(-c2cc3ccc(C(=N)N)cc3n2Cc2cccc3ccccc23)o1` [Compound I-751, 2-(5-methyl-1,3,4-oxadiazol-2-yl)-1-(naphthalen-1-ylmethyl)-1H-indole-6-carboximidamide]: 50 to 75%.
Still for that read-out and setting: with `CN1CCC(OC(=O)c2cc3ccc(C(=N)N)cc3n2Cc2cccc3ccccc23)CC1` [Compound I-752] the figure was 75 to 100%.
Same read-out and setting: with `CS(=O)(=O)N[C@H]1CC[C@H](NC(=O)c2cc3ccc(C(=N)N)cc3n2Cc2cccc3ccccc23)CC1` [Compound I-753] the figure was 50 to 75%; with `CC(=O)N[C@H]1CC[C@H](NC(=O)c2cc3ccc(C(=N)N)cc3n2Cc2cccc3ccccc23)CC1` [Compound I-754], 50 to 75%.
For `N=C(N)c1ccc2cc(C(=O)N[C@H]3CC[C@H](N)CC3)n(Cc3cnoc3-c3ccc(Cl)s3)c2c1` [Compound I-755], under setting [1], the inhibition at 1 µM was in the range of 25 to 50%.
With `N=C(N)c1ccc2cc(C(=O)N[C@H]3CC[C@H](N)CC3)n(Cc3csc4ccccc34)c2c1` [Compound I-756], under setting [1], the inhibition at 1 µM was in the range of 75 to 100%.
Same read-out and setting: the same measure for `N=C(N)c1ccc2cc(C(=O)NCc3ccncc3)n(Cc3cccc4ccccc34)c2c1` [Compound I-758]: 50 to 75%.
Same read-out and setting: the same measure for `N/C(=N/O)c1ccc2cc(C(=O)O)n(Cc3cccc4ccccc34)c2c1` [Compound I-759]: 0 to 25%; for `N=C(N)c1ccc2cc(C(=O)Nc3cccc4c3OCCO4)n(Cc3cccc4ccccc34)c2c1` [Compound I-760]: 0 to 25%.
`CN1CCC(COC(=O)c2cc3ccc(C(=N)N)cc3n2Cc2cccc3ccccc23)CC1` [Compound I-761]: under setting [1], the inhibition at 1 µM fell in the range of 75 to 100%.
Still for that read-out and setting: with `CC(=O)NC(=N)c1ccc2cc(C(=O)NC3CCN(C)CC3)n(Cc3cccc4ccccc34)c2c1` [Compound I-762, 6-(N-acetylcarbamimidoyl)-N-(1-methylpiperidin-4-yl)-1-(naphthalen-1-ylmethyl)-1H-indole-2-carboxamide] the figure was 0 to 25%; with `N=C(N)c1ccc2cc(C(=O)Nc3ccncc3)n(Cc3cccc4ccccc34)c2c1` [Compound I-763], 50 to 75%; with `N=C(N)c1ccc2cc(C(=O)N[C@H]3CCCc4ccccc43)n(Cc3cccc4ccccc34)c2c1` [Compound I-764], 0 to 25%.
The same measure, in the same setting: with `CCCCCCOC(=O)NC(=N)c1ccc2cc(C(=O)NC3CCN(C)CC3)n(Cc3cccc4ccccc34)c2c1` [Compound I-765] the figure was 0 to 25%; with `N=C(N)c1ccc2cc(C(=O)O)n(Cc3cccc4ccccc34)c2n1` [Compound I-766], 75 to 100%; with `CC(C)(C)OC(=O)NC(=N)c1ccc2cc(C(=O)N[C@H]3CCCc4ccccc43)n(Cc3cccc4ccccc34)c2c1` [Compound I-767], 0 to 25%.
On the same count and under the same terms, the same measure for `N=C(N)c1ccc2cc(C(=O)N[C@H]3CC[C@H](N)CC3)n(Cc3cccc4cc(-c5ccccc5)ccc34)c2c1` [Compound I-768]: 75 to 100%; for `N=C(N)c1ccc2cc(C(=O)N[C@H]3CC[C@H](N)CC3)n(Cc3cccc4c(OCc5ccccc5)cccc34)c2c1` [Compound I-769]: 75 to 100%; for `N=C(N)c1ccc2cc(C(=O)N[C@H]3CC[C@H](N)CC3)n(Cc3cccc4cc(OCCCc5ccccc5)ccc34)c2c1` [Compound I-770]: 50 to 75%.
As to `N=C(N)c1ccc2cc(C(=O)Nc3ccc4ncccc4c3)n(Cc3cccc4ccccc34)c2c1` [Compound I-771], under setting [1], the inhibition at 1 µM lay within 25 to 50%.
On the same count and under the same terms, the same measure for `N=C(N)c1ccc2cc(C(=O)N[C@H]3CC[C@H](N)CC3)n(Cc3cc(-c4ccc(Cl)s4)on3)c2c1` [Compound I-773]: 50 to 75%; for `N=C(N)c1ccc2cc(C(=O)N[C@H]3CC[C@H](N)CC3)n(Cc3cc(C(=O)OCc4ccccc4)cc4ccccc34)c2c1` [Compound I-774]: 75 to 100%; for `COc1ccc2cccc(Cn3c(C(=O)N[C@H]4CC[C@H](N)CC4)cc4ccc(C(=N)N)cc43)c2c1` [Compound I-775]: 75 to 100%.
Same read-out and setting: the same measure for `N=C(N)c1ccc2cc(C(=O)N[C@H]3CC[C@H](N)CC3)n(Cc3cc(Oc4ccccc4)cc4ccccc34)c2c1` [Compound I-777]: 75 to 100%; for `CN1CC[C@H](COC(=O)c2cc3ccc(C(=N)N)cc3n2Cc2cccc3ccccc23)c2ccccc21` [Compound I-779]: 25 to 50%; for `CC(C)COC(=O)c1cc(Cn2c(C(=O)N[C@H]3CC[C@H](N)CC3)cc3ccc(C(=N)N)cc32)c2ccccc2c1` [Compound I-780]: 75 to 100%.
Same read-out and setting: the same measure for `N=C(N)c1ccc2cc(C(=O)N[C@H]3CC[C@H](N)CC3)n(Cc3ccc(COCc4ccccc4)c4ccccc34)c2c1` [Compound I-781]: 75 to 100%.
With `CN1CCC(NC(=O)c2cc3ccc(C(=N)NC(=O)Oc4ccccc4)cc3n2Cc2cccc3ccccc23)CC1` [Compound I-782], the inhibition at 1 µM was 50 to 75%.
`CC(C)COC(=O)NC(=N)c1ccc2cc(C(=O)NC3CCN(C)CC3)n(Cc3cccc4ccccc34)c2c1` [Compound I-783]: the inhibition at 1 µM under setting [1] is 0 to 25%.
Same read-out and setting: with `CC(C)OC(=O)NC(=N)c1ccc2cc(C(=O)NC3CCN(C)CC3)n(Cc3cccc4ccccc34)c2c1` [Compound I-784] the figure was 25 to 50%; with `CC(C)OC(=O)NC(=N)c1ccc2cc(C(=O)O)n(Cc3cccc4ccccc34)c2c1` [Compound I-786], 0 to 25%.
Still for that read-out and setting: with `CC(C)(C)OC(=O)N[C@H]1CC[C@H](NC(=O)c2cc3ccc(C(=N)N)cc3n2Cc2cccc3ccccc23)CC1` [Compound I-787] the figure was 0 to 25%; with `N=C(N)c1ccc2cc(C(=O)N[C@H]3CC[C@H](N)CC3)n(Cc3ccc(C(=O)N4CCCC4)c4ccccc34)c2c1` [Compound I-790], 25 to 50%.
Consider `CC(C)COC(=O)NC(=N)c1ccc2cc(C(=O)O)n(Cc3cccc4ccccc34)c2c1` [Compound I-791], for which, under setting [1], the inhibition at 1 µM was 0 to 25%.
Same read-out and setting: the same measure for `N=C(N)c1ccc2cc(C(=O)N[C@H]3CC[C@H](N)CC3)n(Cc3cccc4c(Br)cccc34)c2c1` [Compound I-792]: 75 to 100%.
The same measure, in the same setting: the same measure for `CC(C)Oc1ccc2c(Cn3c(C(=O)O)cc4ccc(C(=N)N)cc43)cccc2c1` [Compound I-793]: 50 to 75%.

As a reminder, the inhibition is the percentage by which the read-out fell short of the control.
